Measured values taken from patent US11400107B2, “Cancer treatments” (NuCana plc, priority 2016, dated 2022).
Entries after “also recorded” stand apart in the source; their conditions may differ.

Test system: Lin^−/CD34^+/CD38^−/CD123^+ cancer stem cells in KG1a cells
Assay: Immunophenotypic quantification of the leukaemic stem cell compartment in KG1a cells
Type: cell-based, human
Conditions: KG1a cells
Protocol: The respective abilities of NUC-1031 and gemcitabine to target CSCs were investigated in the AML cell line KG1a.
KG1a cells were cultured for 72 hours in the presence of a wide range of concentrations of each nucleoside analogue and their respective ProTides. Cells were then harvested and labelled with a cocktail of anti-lineage antibodies (PE-cy7), anti-CD34 (FITC), anti-CD38 (PE) and anti-CD123 (PERCP cy5). The sub-population expressing a leukaemic stem cell (LSC) phenotype were subsequently identified and were expressed as a percentage of all viable cells left in the culture. The percentages of stem cells remaining were then plotted on a dose-response graph and the proportion of cancer stem cells was compared across the various concentrations of ProTides and their respective parent compounds, in order to determine if they preferentially target cancer stem cells.
The data obtained in these experiments were evaluated using one way ANOVA. All data was confirmed as Gaussian or a Gaussian approximation using the omnibus K2 test. LD50 values were calculated from the non-linear regression and line of best-fit analysis of the sigmoidal dose-response curves. All statistical analyses were performed using Graphpad Prism 6.0 software (Graphpad Software Inc., San Diego, Calif.).

SMILES: C[C@H](NP(=O)(OC[C@H]1O[C@@H](n2ccc(N)nc2=O)C(F)(F)[C@@H]1O)Oc1ccccc1)C(=O)OCc1ccccc1 (stereo partly drawn) [NUC-1031, 2′-deoxy-2′,2′-difluoro-D-cytidine-5′-O-[phenyl (benzoxy-L-alaninyl)] phosphate]
- selectivity against cancer stem cells compared to the parent compound: preferential targeting of CSCs; also recorded: statistically significantly greater
